Entries after “also recorded” stand apart in the source; their conditions may differ.
Columns and labels:
[1] = tested on: adult and geriatric patients, milder depression; details: 6 weeks; pooled data of 37 trials of fluoxetine and venlafaxine; cited from earlier work
[2] = tested on: adult and geriatric patients, milder depression; test: Gibbons et al. 2012 synthesis of 37 placebo controlled double-blind randomized trials, HDRS-17 outcome; type: in vivo, human; details: 6 weeks; converted from HDRS-17 with the 24% increased range of the 21 item scale; pooled fluoxetine and venlafaxine
[3] = tested on: patients with severe TRMD; test: Same trial; Montgomery-Asberg Depression Rating Scale (MADRS); type: in vivo, human; details: 25% nitrous oxide
From the text: (§1) The trial was registered at clinicaltrials.gov (NCT03283670).
(§2) Patients were recruited from an existing database of TRMD patients identified through participation in a secondary referral clinic for TRMD at Washington University Department of Psychiatry, as well as from the “Volunteers for Health” patient pool (individuals with various medical/psychiatric conditions who volunteer to participate in clinical research) within Washington University School of Medicine. Inclusion criteria were a) adults 18-75 years of age; b) current diagnosis of unipolar major depressive disorder (MDD) without psychosis as confirmed by the Mini International Neuropsychiatric Interview; c) a score of ≥19 on the Montgomery-Asberg Depression Rating Scale (MADRS); d) documented lifetime failure to respond to ≥3 adequate dose/duration antidepressant treatment trials, including ≥1 antidepressant medication failure(s) in the current depressive episode; and e) good command of the English language. […] Patients were instructed to continue their current standard of care MDD treatment and to maintain a stable psychotropic medication dosage or psychotherapy regimen for 4 weeks prior to initiation of the study and throughout the study. […]

[4] = tested on: patients with severe TRMD; test: Same trial; Quick Inventory of Depressive Symptomology-Self Report (QIDS-SR); type: in vivo, human
From the text: as §1, §2

[5] = tested on: patients with severe TRMD; test: Same trial; Profile of Mood States 2nd Edition (POMS-2); type: in vivo, human
From the text: as §1, §2

[6] = tested on: patients with severe TRMD; test: Same trial; treatment safety, monitoring of adverse events; details: for Stomach virus: >24 hours after inhalation session, count (%)
From the text: (§3) The study was a single-center, double-blind, randomized placebo-controlled crossover trial. All subjects underwent three one-hour inhalation sessions in random order, each separated by at least 4 weeks. The sessions included: placebo (0% N20), 25% N20, and 50% N20 balanced with air/oxygen. Blinding was executed by separating locations and teams for inhalation treatments and psychiatric evaluations. Only the anesthesia team administering the inhalation treatments was aware of study group assignment; all other participants, including patients and raters, were blinded. Likewise, the study setup was identical for all sessions, and gas flow meters were concealed, making inadvertent unblinding unlikely. The study was approved by the Washington University in St. Louis Institutional Review Board, and all patients provided written, informed consent. The trial was registered at clinicaltrials.gov (NCT03283670).
(§4) All three inhalation sessions were scheduled for one hour. […] Except for the choice of inhalational gas admixture, treatment sessions were otherwise identical. The gas mix was administered via a standard anesthesia facemask through tubing connected to the anesthesia machine or an FDA-approved Porter/Praxair MXR breathing circuit. A small sample connector line was inserted into the facemask allowing the measurement of inhaled and exhaled gas concentrations. […] Patients were monitored during and after the treatment according to American Society of Anesthesiologists standards which include continuous 3-lead ECG, pulse oximetry, non-invasive blood pressure, and end tidal CO2 measurement under the supervision of an attending-level anesthesiologist. After the one-hour treatment session, patients were monitored in a recovery room for up to one hour at which time a study team physician determined whether the patient met criteria for discharge.
(§5) Data were collected at (a) baseline (prior to each inhalation session), (b) 2-hours, (c) 24 hours, (d) 1 week, and (e) 2 weeks after inhalation. Efficacy of the inhalation treatment on mood was measured using the following: Hamilton Depression Rating Scale 21-item (HDRS-21; primary outcome); Montgomery-Asberg Depression Rating Scale (MADRS); Quick Inventory of Depressive Symptomology-Self Report (QIDS-SR); and the Profile of Mood States 2nd Edition (POMS-2). Other behavioral assessments included an assessment of dissociation, the Clinical Administered Dissociative States Scale 28-item (CADSS-28); and an assessment for the emergence of psychosis, the Brief Psychiatric Rating Scale 18-item (BPRS-18). These mood and behavioral assessments were performed by a blinded member of the psychiatry study team. Additionally, adequacy of the blind was assessed by a Blinding Questionnaire given after completion of each inhalation session. Treatment safety was assessed by monitoring adverse events (AEs) related to (a) cardiovascular status; (b) respiratory function; (c) central nervous system; and (d) psychiatric symptoms, particularly the presence of psychotic symptoms.
Finally, we also tested for a linear dose-response relation. Differences between categorical outcomes (response, remission) were tested by Fisher-Exact test; relative risk and 95% confidence intervals were calculated using the Koopman asymptotic score. Differences in the count of adverse events were compared by the Kruskal-Wallis test. All reported p-values are two-sided and a p-value of <0.05 was considered statistically significant. All analyses were conducted using SuperMix (Scientific Software International, Lincolnwood Ill.).

bothersome tinnitus = details: similar clinical trial; 85% of patients correctly guessed the treatment arm; cited from earlier work
[7] = tested on: patients with severe TRMD; test: Phase 2 double-blind randomized placebo-controlled crossover trial, single 1-hour inhalation; Hamilton Depression Rating Scale (HDRS-21, primary outcome); type: in vivo, human; details: for Estimated difference between 25% and placebo (HDRS-21) / Estimated difference between 50% and placebo (HDRS-21): single 1-hour inhalation; for Difference vs placebo (HDRS-21): 2 weeks, following a single treatment; for Estimated difference between 50% and 25% (HDRS-21): 50% vs 25% nitrous oxide; for Patients in remission (HDRS ≤7 points) / Patients with treatment response (reduction in HDRS-21 points ≥50%): pre-treatment HDRS-21 >19; for Estimated difference between placebo and the combined 25% and 50% groups (HDRS-21): combined 25% and 50% nitrous oxide
From the text: as §3
Patients were recruited from an existing database of TRMD patients identified through participation in a secondary referral clinic for TRMD at Washington University Department of Psychiatry, as well as from the “Volunteers for Health” patient pool (individuals with various medical/psychiatric conditions who volunteer to participate in clinical research) within Washington University School of Medicine. […] Patients were instructed to continue their current standard of care MDD treatment and to maintain a stable psychotropic medication dosage or psychotherapy regimen for 4 weeks prior to initiation of the study and throughout the study. Further, patients were instructed not to modify their antidepressant treatments during the three month course of the trial (i.e., discouraged from adding new antidepressants or modifying existing antidepressant dosages).
Following the in-person screen, each of the three treatment sessions consisted of […]: pre-inhalation mood assessment, inhalation, and post-inhalation follow-up sessions at 22-28 hours, 1 week, and 2 weeks. An additional assessment was completed 4 weeks following the final inhalation treatment.
as §4
as §5, with “session.” for “session. Treatment safety was assessed by monitoring adverse events (AEs) related to (a) cardiovascular status; (b) respiratory function; (c) central nervous system; and (d) psychiatric symptoms, particularly the presence of psychotic symptoms.”

[8] = tested on: Major Depressive Disorder; details: 50% nitrous oxide; cited from earlier work
patients with TRMD = details: 50% nitrous oxide, one one-hour inhalation; cited from earlier work
[9] = after 50% nitrous oxide, 5/12 patients

In the case of `CNCCC(Oc1ccc(C(F)(F)F)cc1)c1ccccc1` (centres unmarked) [fluoxetine], the “Estimated separation between active treatment and placebo control (HDRS-17)” value [1] is given as −2.55 HDRS-17 units and the “Equivalent difference on the HDRS-21” value [2] is given as −3.16 unit.

For `[N-]=[N+]=O` [nitrous oxide], the MADRS efficacy [3] was “not significant”, the “Results on the QIDS scale” value ([4]; 25% nitrous oxide) was “non-significant; also recorded: not statistically significant” and the “Results on the QIDS scale” value ([4]; 50% nitrous oxide, except at 2 weeks) was “not statistically significant”. The “Results on the POMS scale” value ([5]; 25% nitrous oxide) was “non-significant”, the “Results on the POMS scale” value ([5]; 50% nitrous oxide) was “significant at 2 weeks” and the Stomach virus ([6]; 25% N2O (n = 20)) was 0. The Stomach virus ([6]; 50% N2O (n = 23)) was 0, the “Car Crash (minor)” value ([6]; human, in vivo) was 1 (4%) and the “Fainting Spell” value ([6]; human, in vivo) was 1 (4%). For the same compound, the Haziness ([6]; human, in vivo) was 3 (13%), the Haziness ([6]; human, in vivo, 1 h) was 1(5%) and the Serious adverse events ([6]; in vivo) was “None”. The “Treatment effect for bothersome tinnitus” value (bothersome tinnitus) was “did not observe a treatment effect”, the “Estimated difference between 25% and placebo (HDRS-21)” value ([7]; 25% nitrous oxide, 2 hours) was −0.75 points and the “Estimated difference between 25% and placebo (HDRS-21)” value ([7]; 25% nitrous oxide, 24 hours) was −1.41 points. For the same compound, the “Estimated difference between 25% and placebo (HDRS-21)” value ([7]; 25% nitrous oxide, week 1) was −4.35 points, the “Estimated difference between 25% and placebo (HDRS-21)” value ([7]; 25% nitrous oxide, week 2) was −5.19 points and the “Difference vs placebo (HDRS-21)” value ([7]; 25% nitrous oxide) was −5.19 units. For the same compound, the “Effect size d, 25% vs placebo (HDRS-21)” value ([7]; 25% nitrous oxide, 2 hours) was 0.16, the “Effect size d, 25% vs placebo (HDRS-21)” value ([7]; 25% nitrous oxide, 24 hours) was 0.21 and the “Effect size d, 25% vs placebo (HDRS-21)” value ([7]; 25% nitrous oxide, week 1) was 0.38. For the same compound, the “Effect size d, 25% vs placebo (HDRS-21)” value ([7]; 25% nitrous oxide, week 2) was 0.62, the “Estimated difference between 50% and placebo (HDRS-21)” value ([7]; 50% nitrous oxide, 2 hours) was −0.87 points and the “Estimated difference between 50% and placebo (HDRS-21)” value ([7]; 50% nitrous oxide, 24 hours) was −1.93 points. The “Estimated difference between 50% and placebo (HDRS-21)” value ([7]; 50% nitrous oxide, week 1) was −2.44 points, the “Estimated difference between 50% and placebo (HDRS-21)” value ([7]; 50% nitrous oxide, week 2) was −7.00 points and the “Difference vs placebo (HDRS-21)” value ([7]; 50% nitrous oxide) was −7.00 HDRS-21 units. The “Effect size d, 50% vs placebo (HDRS-21)” value ([7]; 50% nitrous oxide, 2 hours) was 0.29, the “Effect size d, 50% vs placebo (HDRS-21)” value ([7]; 50% nitrous oxide, 24 hours) was 0.32 and the “Effect size d, 50% vs placebo (HDRS-21)” value ([7]; 50% nitrous oxide, week 1) was 0.35. The “Effect size d, 50% vs placebo (HDRS-21)” value ([7]; 50% nitrous oxide, week 2) was 0.85, the “Estimated difference between 50% and 25% (HDRS-21)” value ([7]; 2 hours) was 0.11 points and the “Estimated difference between 50% and 25% (HDRS-21)” value ([7]; 24 hours) was 0.42 points. For the same compound, the “Estimated difference between 50% and 25% (HDRS-21)” value ([7]; week 1) was 1.91 points, the “Estimated difference between 50% and 25% (HDRS-21)” value ([7]; week 2) was −1.67 points and the “Patients in remission (HDRS ≤7 points)” value ([7]; after 25% nitrous oxide, 2/9 patients) was 22.2%. For the same compound, the “Patients with treatment response (reduction in HDRS-21 points ≥50%)” value ([7]; after 25% nitrous oxide, 3/9 patients) was 33.3%, the “Patients in remission (HDRS ≤7 points)” value [7, 9] was 41.7% and the “Patients with treatment response (reduction in HDRS-21 points ≥50%)” value [7, 9] was 41.7%. For the same compound, the “Estimated difference between placebo and the combined 25% and 50% groups (HDRS-21)” value ([7]; 2 hours) was −0.81 points, the “Estimated difference between placebo and the combined 25% and 50% groups (HDRS-21)” value ([7]; 24 hours) was −1.67 points and the “Estimated difference between placebo and the combined 25% and 50% groups (HDRS-21)” value ([7]; week 1) was −3.35 points. The “Estimated difference between placebo and the combined 25% and 50% groups (HDRS-21)” value ([7]; week 2) was −6.13 points, the “Median HDRS-21 score at study completion” value ([7]; entire 3-month course (25%, 50% nitrous oxide and placebo sessions), completers n=20, baseline median 20.5) was 8.5 (IQR 2.0-16.0) and the “Median change in HDRS-21 from baseline to study completion” value ([7]; entire 3-month course (25%, 50% nitrous oxide and placebo sessions), n=20, IQR −3.3 to −14.0) was −11.0 points. The “Patients in remission at study completion (HRDS≤7 points)” value ([7]; entire 3-month course, n=20, 8/20) was 40%, the “Patients with treatment response at study completion (reduction in HRDS-21 points ≥50%)” value ([7]; entire 3-month course, n=20, 11/20) was 55% and the “Patients with improvement in depressive symptoms by at least one category at study completion” value ([7]; entire 3-month course, n=20, 17/20) was 85%. The “Median reduction of HDRS-21” value ([7]; entire 3-month treatment regimen with 2 treatments with nitrous oxide) was 11 HDRS-21 points, the “Dose-response relation (HDRS-21 decrease)” value ([7]; week 2) was −3.51 per 25% increase in dose and the “Persistence of efficacy after a single inhalation (case report)” value [8] was “beyond one month”. The “Effect on depressive symptoms in patients with TRMD (earlier study)” value (patients with TRMD) was “improved depressive symptoms; also recorded: rapid antidepressant effects”.

In the case of `COc1ccc(C(CN(C)C)C2(O)CCCCC2)cc1` (centres unmarked) [venlafaxine], the “Estimated separation between active treatment and placebo control (HDRS-17)” value [1] is given as −2.55 HDRS-17 units and the “Equivalent difference on the HDRS-21” value [2] is given as −3.16 unit.
